pIC50: −log10 of the molar value. Where a SMILES comes first, the peptide text is derived from it. Bridges are numbered along the chain shown (N, C = ends). Where no end group is shown, it is not given here. [ ]: non-standard residue; d: D form. SeMet = C[Se]CC[C@H](N)C(=O)O
Experiments:
human PAC1 receptor = biological target: T1, human PAC1 receptor (Homo sapiens, UniProt P41586); assay: LANCE Ultra cAMP accumulation antagonist assay in SHSY-5Y cells; type: cell-based;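 further: inhibition of cAMP accumulation evoked by PAC1 agonist at its EC80 in SHSY-5Y cells endogenously expressing receptor, 30 min preincubation then 15 min agonist, TR-FRET readout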
T1 construct: SHSY-5Y (human neuroblastoma cell line) and RG-2 (rat glioma cell line) cells endogenously express human and rat PAC1 receptors, respectively; endogenous in cells; host or cells: SHSY-5Y human neuroblastoma cells
T1 sequence (P41586 21-468): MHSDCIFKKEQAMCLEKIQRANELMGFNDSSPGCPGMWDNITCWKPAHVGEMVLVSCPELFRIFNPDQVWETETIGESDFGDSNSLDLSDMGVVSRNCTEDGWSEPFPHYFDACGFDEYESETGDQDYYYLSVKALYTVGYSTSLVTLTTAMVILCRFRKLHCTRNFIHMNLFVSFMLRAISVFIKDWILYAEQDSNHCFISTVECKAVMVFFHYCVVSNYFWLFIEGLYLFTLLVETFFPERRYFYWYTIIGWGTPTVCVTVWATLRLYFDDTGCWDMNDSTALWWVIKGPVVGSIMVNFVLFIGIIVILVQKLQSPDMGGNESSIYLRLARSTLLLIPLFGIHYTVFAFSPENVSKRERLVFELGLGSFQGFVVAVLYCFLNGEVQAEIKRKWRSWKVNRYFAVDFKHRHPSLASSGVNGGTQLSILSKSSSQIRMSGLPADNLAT
Method: In order to determine the potency of peptide antagonists at the PAC1 receptor, functional cAMP accumulation assays using LANCE Ultra cAMP assay kit to measure the agonist and antagonist activity of PAC1 peptides were used. SHSY-5Y (human neuroblastoma cell line) and RG-2 (rat glioma cell line) cells endogenously express human and rat PAC1 receptors, respectively. Agonist activity of PAC1 peptides was tested by incubating with SHSY-5Y at 2,000 cells per well or RG-2 at 5,000 cells per well for 15 minutes at room temperature. PAC1 receptor agonist PACAP38 or maxadilan was included as a positive control. The reaction was stopped by adding detection mixture, europium (Eu) chelate-labeled cAMP tracer and cAMP-specific monoclonal antibodies labeled with the ULight™ dye, to all wells followed by a 60-minute incubation at room temperature. The assay plates were then read on an EnVision instrument at an emission wavelength of 665 and 615 nm and data were analyzed using Genedata Screener or GraphPad Prism software. A similar procedure was used in the antagonist assays by using a fixed concentration of PAC1 agonist. The concentrations of agonists were chosen based on their ECK) values at PAC1 receptors in SHSY-5Y or RG-2 cells. SHSY-5Y or RG-2 cells were added into 96-well half-area white plates. Serially diluted PAC1 peptides at ten concentrations were added and incubated for 30 minutes at room temperature. PAC1 agonist at EC80 concentration was then added and further incubated for 15 minutes at room temperature. The reaction was stopped by adding detection mixture to all wells followed by a 60-minute incubation at room temperature. The assay plates were read and analyzed the same way as that of agonist assay. Cells, agonists, and PAC1 peptides were prepared in freshly made assay buffer (F-12, 0.5 mM IBMX, 0.1 or 0.4% BSA (pH 7.4)). Detection mixture was made by mixing a 1/50 dilution of the Eu-cAMP tracer stock solution in cAMP Detection Buffer and a 1/150 dilution of the ULight-anti-cAMP stock solution in cAMP Detection Buffer. Europium (Eu) chelate-labeled cAMP tracer, cAMP-specific monoclonal antibodies labeled with the ULight™ dye, BSA, and detection buffer were provided in LANCE Ultra cAMP Kit from PerkinElmer

rat PAC1 receptor = biological target: T2, rat PAC1 receptor (Rattus norvegicus, UniProt P32215); assay: LANCE Ultra cAMP accumulation antagonist assay in RG-2 cells; type: cell-based;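 further: RG-2 rat glioma cells endogenously expressing PAC1, test peptide preincubated 30 min, then PAC1 agonist added at its EC80 for 15 min, cAMP accumulation read by LANCE Ultra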
T2 construct: SHSY-5Y (human neuroblastoma cell line) and RG-2 (rat glioma cell line) cells endogenously express human and rat PAC1 receptors, respectively; endogenous in cells; host or cells: RG-2 rat glioma cells
T2 sequence (P32215 20-523): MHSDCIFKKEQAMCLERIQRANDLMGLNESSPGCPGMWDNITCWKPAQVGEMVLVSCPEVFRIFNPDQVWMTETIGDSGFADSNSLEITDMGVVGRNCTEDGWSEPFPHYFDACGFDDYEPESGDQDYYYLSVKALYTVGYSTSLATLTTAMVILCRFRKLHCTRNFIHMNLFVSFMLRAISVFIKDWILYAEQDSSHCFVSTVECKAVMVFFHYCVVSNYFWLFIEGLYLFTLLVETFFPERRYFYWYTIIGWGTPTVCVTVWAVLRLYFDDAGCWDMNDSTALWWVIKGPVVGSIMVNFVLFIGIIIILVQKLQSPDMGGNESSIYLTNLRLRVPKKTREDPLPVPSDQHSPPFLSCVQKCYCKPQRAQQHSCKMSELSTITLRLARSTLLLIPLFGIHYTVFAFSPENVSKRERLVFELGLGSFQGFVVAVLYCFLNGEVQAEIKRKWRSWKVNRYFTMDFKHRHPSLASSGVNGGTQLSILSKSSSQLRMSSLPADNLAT

| Molecule | pIC50 (human PAC1 receptor) | pIC50 (rat PAC1 receptor) |
| --- | --- | --- |
| CDATCQFRKAIDDCYYRSWHSNVPGSVFKACMKFRFNVWKAG-NH2 (disulfide 1-5, 14-31) [compound 67] | 7.00 to 9.00 | 9.00 to 11.00 |
| CDATCQFRKAIDDCQKQAHHSNVPGSVFKACMKQKKKEFKAQ (disulfide 1-5, 14-31) [compound 96] | 7.00 to 9.00 | 9.00 to 11.00 |
| CDATCQFRKAIDDCIFWAAHSNVPGSVFKACMKQKKKEFKAG-NH2 (disulfide 1-5, 14-31) [compound 123] | 9.00 to 11.00 | 9.00 to 11.00 |
| CDATCQFRKAIDDCYYRAWHSNVPGSVFKACMKQKKKEFKAG-NH2 (disulfide 1-5, 14-31) [compound 104] | 9.00 to 11.00 | 9.00 to 11.00 |
| CDATCQFRKAIDDCMLLSWHSNVPGSVFKACMKQKKKEFKAG-NH2 (disulfide 1-5, 14-31) [compound 132] | 9.00 to 11.00 | > 11.00 |
| CDATCQFRKAIDDCHLLAWHANVPGSVFKACMKQKKKEFKAG-NH2 (disulfide 1-5, 14-31) [compound 140] | 9.00 to 11.00 | 9.00 to 11.00 |
| CDATCQFRKAIDDCYYRSWHSNVPGSVFKACMKQKKKEFKAG (disulfide 1-5, 14-31) [compound 64] | 7.00 to 9.00 | 9.00 to 11.00 |
| CDATCQFRKAIDDCAKQAHHSNVPGSVFKSCMKQKKKEFKAG-NH2 (disulfide 1-5, 14-31) [compound 31] | 9.00 to 11.00 | > 11.00 |
| CC[C@H](C)[C@H](NC(=O)[C@H](C)NC(=O)[C@H](CCCCN)NC(=O)[C@H](CCCNC(=N)N)NC(=O)[C@H](Cc1ccccc1)NC(=O)[C@H](CCC(N)=O)NC(=O)[C@@H]1CSSC[C@H](NC(=O)CN)C(=O)N[C@@H](CC(=O)O)C(=O)N[C@@H](C)C(=O)N[C@@H]([C@@H](C)O)C(=O)N1)C(=O)N[C@@H](CC(=O)O)C(=O)N[C@@H](CC(=O)O)C(=O)N[C@H]1CSSC[C@@H](C(=O)N[C@@H](CCSC)C(=O)N[C@@H](CCCCN)C(=O)N[C@@H](CCC(N)=O)C(=O)N[C@@H](CCCCN)C(=O)N[C@@H](CCCCN)C(=O)N[C@@H](CCCCN)C(=O)N[C@@H](CCC(=O)O)C(=O)N[C@@H](Cc2c[nH]c3ccccc23)C(=O)N[C@@H](CCCCN)C(=O)N[C@@H](C)C(=O)NCC(=O)N[C@@H](Cc2c[nH]cn2)C(=O)O)NC(=O)[C@H](C)NC(=O)[C@H](CCCCN)NC(=O)[C@H](Cc2ccccc2)NC(=O)[C@H](C(C)C)NC(=O)[C@H](CO)NC(=O)[C@H](CO)NC(=O)[C@H](Cc2c[nH]cn2)NC(=O)[C@H](Cc2c[nH]cn2)NC(=O)[C@H](C)NC(=O)[C@H](CCC(N)=O)NC(=O)[C@H](CCCNC(=N)N)NC(=O)[C@H](C(C)C)NC1=O [compound 15] (H-GCDATCQFRKAIDDCVRQAHHSSVFKACMKQKKKEWKAGH-OH; disulfide 2-6, 15-28) | 9.00 to 11.00 | 9.00 to 11.00 |
| CC[C@H](C)[C@H](NC(=O)[C@H](C)NC(=O)[C@H](CCCCN)NC(=O)[C@H](CCCNC(=N)N)NC(=O)[C@H](Cc1ccccc1)NC(=O)[C@H](CCC(N)=O)NC(=O)[C@@H]1CSSC[C@H](N)C(=O)N[C@@H](CC(=O)O)C(=O)N[C@@H](C)C(=O)N[C@@H]([C@@H](C)O)C(=O)N1)C(=O)N[C@@H](CC(=O)O)C(=O)N[C@@H](CC(=O)O)C(=O)N[C@H]1CSSC[C@@H](C(=O)N[C@@H](CCSC)C(=O)N[C@@H](CCCCN)C(=O)N[C@@H](CCC(N)=O)C(=O)N[C@@H](CCCCN)C(=O)N[C@@H](CCCCN)C(=O)N[C@@H](CCCCN)C(=O)N[C@@H](CCC(=O)O)C(=O)N[C@@H](Cc2c[nH]c3ccccc23)C(=O)N[C@@H](CCCCN)C(=O)N[C@@H](C)C(=O)NCC(N)=O)NC(=O)[C@H](C)NC(=O)[C@H](CCCCN)NC(=O)[C@H](Cc2ccccc2)NC(=O)[C@H](C(C)C)NC(=O)[C@H](CO)NC(=O)[C@H](CO)NC(=O)[C@H](Cc2c[nH]cn2)NC(=O)[C@H](Cc2c[nH]cn2)NC(=O)[C@H](C)NC(=O)[C@H](CCC(N)=O)NC(=O)[C@H](CCCNC(=N)N)NC(=O)[C@H](CC(=O)O)NC1=O [compound 16] (H-CDATCQFRKAIDDCDRQAHHSSVFKACMKQKKKEWKAG-NH2; disulfide 1-5, 14-27) | 9.00 to 11.00 | 9.00 to 11.00 |
| CDATCQFRKAIDDCVRQAHHSNVPGSVFKACMKQKKKEWKAG (disulfide 1-5, 14-31) [compound 82] | 9.00 to 11.00 | 9.00 to 11.00 |
| CC[C@H](C)[C@H](NC(=O)[C@H](C)NC(=O)[C@H](CCCCN)NC(=O)[C@H](CCCNC(=N)N)NC(=O)[C@H](Cc1ccccc1)NC(=O)[C@H](CCC(N)=O)NC(=O)[C@@H]1CSSC[C@H](N)C(=O)N[C@@H](CC(=O)O)C(=O)N[C@@H](C)C(=O)N[C@@H]([C@@H](C)O)C(=O)N1)C(=O)N[C@@H](CC(=O)O)C(=O)N[C@@H](CC(=O)O)C(=O)N[C@H]1CSSC[C@@H](C(=O)N[C@@H](CC[Se]C)C(=O)N[C@@H](CCCCN)C(=O)N[C@@H](CCC(N)=O)C(=O)N[C@@H](CCCCN)C(=O)N[C@@H](CCCCN)C(=O)N[C@@H](CCCCN)C(=O)N[C@@H](CCC(=O)O)C(=O)N[C@@H](Cc2c[nH]c3ccccc23)C(=O)N[C@@H](CCCCN)C(=O)N[C@@H](C)C(=O)NCC(N)=O)NC(=O)[C@H](C)NC(=O)[C@H](CCCCN)NC(=O)[C@H](Cc2ccccc2)NC(=O)[C@H](C(C)C)NC(=O)[C@H](CO)NC(=O)[C@H](CO)NC(=O)[C@H](Cc2c[nH]cn2)NC(=O)[C@H](Cc2ccc(O)cc2)NC(=O)[C@H](C)NC(=O)[C@H](CCC(N)=O)NC(=O)[C@H](CCCNC(=N)N)NC(=O)[C@H](C)NC1=O [compound 6] (H-CDATCQFRKAIDDCARQAYHSSVFKAC[SeMet]KQKKKEWKAG-NH2; disulfide 1-5, 14-27) | 9.00 to 11.00 | 9.00 to 11.00 |
| CDATCQFRKAIDDCWMLSWHANVPGSVFKACMKQKKKEFKAG-NH2 (disulfide 1-5, 14-31) [compound 92] | 9.00 to 11.00 | 9.00 to 11.00 |
| CDATCQFRKAIDDCQKQAHHSNVPGSVFKACMKQKKKEFKAGQ (disulfide 1-5, 14-31) [compound 174] | 7.00 to 9.00 | 9.00 to 11.00 |
| CDATCQFRKAIDDCAKQAHHSNVPGSVFKACIKQKKKEFKAG-NH2 (disulfide 1-5, 14-31) [compound 14] | 9.00 to 11.00 | 9.00 to 11.00 |
| CDATCQFRKAIDDCVRQAHHSNVPGSVFKACMKQKKKEWKAG-NH2 (disulfide 1-5, 14-31) [compound 79] | 9.00 to 11.00 | > 11.00 |
| CEATCQFRKAIDDCARQAHHSNVPGSVFKACMKQKKKEWKAGH (disulfide 1-5, 14-31) [compound 11] | 9.00 to 11.00 | 9.00 to 11.00 |
| CDATCQFRKAIDDCDRQAHHSNVPGSVFKACMKQKKKEWKANN (disulfide 1-5, 14-31) [compound 154] | 9.00 to 11.00 | 9.00 to 11.00 |
| CDATCHFRKAIDDCYYRSWHSNVPGSVFKACMKQHKKRWRAG-NH2 (disulfide 1-5, 14-31) [compound 71] | 9.00 to 11.00 | 9.00 to 11.00 |
| CDATCQFRKAIDDCFYQAWHSNVPGSVWKACMKQKKKEFKAG-NH2 (disulfide 1-5, 14-31) [compound 139] | 9.00 to 11.00 | 9.00 to 11.00 |
| CDATCQFRKAIDDCAKASWHSNVPGSVFKSCMKQKKKEWKAGH-NH2 (disulfide 1-5, 14-31) [compound 1] | 9.00 to 11.00 | > 11.00 |
| CDATCQFRKAIDDCVRQAHHSNVPGSVWKACMKQKKKEWKAGH (disulfide 1-5, 14-31) [compound 106] | 9.00 to 11.00 | 9.00 to 11.00 |
| CDATCQFRKAIDDCARQAHHSNVPGSVFKACLKQKKKEWKAGH (disulfide 1-5, 14-31) [compound 41] | 9.00 to 11.00 | 9.00 to 11.00 |
| CDATCQFRKAIDDCARQAHHSNVPGSVFKACMKQKKKEFKAG-NH2 (disulfide 1-5, 14-31) [compound 17] | 9.00 to 11.00 | > 11.00 |
| CDATCQFRKAIDDCQKQAHHSNVPGSVFKACVLQKKKEFKAG-NH2 (disulfide 1-5, 14-31) [compound 93] | 7.00 to 9.00 | 7.00 to 9.00 |
| CDATCQFRKAIDDCVWYSMHSNVPGSVFKACMKQKKKEFKAG-NH2 (disulfide 1-5, 14-31) [compound 133] | 9.00 to 11.00 | 9.00 to 11.00 |
